Drawing on patent publication US20090298878A1, “OXIME COMPOUNDS AND THE USE THEREOF” (priority 2006, published 2009), this text covers IC50 for 29 compounds.

Some results are limits rather than exact numbers.

This test concerns the target T1, N-type calcium channel (NTCC) (Homo sapiens, UniProt Q00975).
T1 construct: host or cells: IMR32 cells differentiated with dibutyryl cAMP and bromodeoxyuridine
As to the kind of experiment: FLIPR calcium mobilization assay for N-type calcium channel (differentiated IMR32 cells). It counts as cell-based. Particulars: about 1.0 μM or less; calcium mobilization and/or electrophysiological assay. The procedure: Cell maintenance and differentiation. Unless noted otherwise, cell culture reagents were purchased from Mediatech of Hemdon, Md. IMR32 cells (American Type Culture Collection, ATCC, Manassas, Va.) were routinely cultured in growth medium consisting of minimum essential medium containing 10% fetal bovine serum (FBS, Hyclone, Logan, Utah), 100 U/mL penicillin, 100 μg/mL streptomycin, 2 mM L-glutamine, 1 mM sodium pyruvate, and 1× MEM non-essential amino acids. 80-90% confluent flasks of cells were differentiated using the following differentiation medium: Growth medium plus 1 mM dibutyryl cyclic AMP (Sigma, St. Louis, Mo.), and 2.5 μM bromodeoxyuridine (Sigma). Cells were differentiated for 8 days by replacing differentiation medium every 2-3 days.
FLIPR Calcium Mobilization Assay for N-type Calcium Channel. One day prior to performing this assay, differentiated IMR32 cells were treated with 1× CellStripper, and seeded on poly-D-lysine-coated 96-well clear-bottom black plates (Becton Dickinson, Franklin Lakes, N.J.) at 200,000 cells/well. On the day of the assay, the cell plates were washed with IMR32 buffer (127 mM NaCl, 1 mM KCl, 2 mM MgCl2, 700 μM NaH2PO4, 5 mM CaCl2, 5 mM NaHCO3, 8 mM HEPES, 10 mM glucose, pH 7.4), then pre-stimulated with KCl and loaded as follows: 0.05 mL of IMR32 buffer, 0.05 mL of each compound tested diluted in IMR32 buffer containing 20 μM nitrendipine (Sigma), and 0.1 mL KCl dissolved in IMR32 buffer, plus Fluo-4 were added (3 μM final concentration, Molecular Probes, Eugene, Oreg.). Final test compound concentrations ranged from about 846 pM to about 17 μM, final nitrendipine concentration was 5 μM, and final KCl concentration was 90 mM. After 1 hour, the cells were washed twice with 0.05 mL of each compound tested in nitrendipine-containing IMR32 buffer (no KCl or Fluo-4), and then replaced with 0.1 mL of each compound tested in nitrendipine-containing IMR32 buffer. Plates were then transferred to a Fluorimetric imaging Plate Reader (FLIPR^96, Molecular Devices, Inc., Sunnyvale, Calif.) for assay. The FLIPR measured basal Fluo-4 fluorescence for 315 seconds (i.e., 5 minutes and 15 seconds), then added 0.1 mL KCl agonist dissolved in IMR32 buffer and measured fluorescence for another 45 seconds. Final test compound concentrations on the cells after FLIPR read ranged from about 846 pM to about 17 μM, final nitrendipine concentration was 5 μM, and final KCl concentration was 90 mM. Data were collected over the entire time course and analyzed using Excel, Graph Pad Prism (version 3.02, Graph Pad, San Diego, Calif.), or an in-house non-linear regression analysis software.
(Calcium assays in cells follow changes in intracellular calcium, usually with a dye or a luminescent sensor.)

T1 sequence (Q00975 whole entry): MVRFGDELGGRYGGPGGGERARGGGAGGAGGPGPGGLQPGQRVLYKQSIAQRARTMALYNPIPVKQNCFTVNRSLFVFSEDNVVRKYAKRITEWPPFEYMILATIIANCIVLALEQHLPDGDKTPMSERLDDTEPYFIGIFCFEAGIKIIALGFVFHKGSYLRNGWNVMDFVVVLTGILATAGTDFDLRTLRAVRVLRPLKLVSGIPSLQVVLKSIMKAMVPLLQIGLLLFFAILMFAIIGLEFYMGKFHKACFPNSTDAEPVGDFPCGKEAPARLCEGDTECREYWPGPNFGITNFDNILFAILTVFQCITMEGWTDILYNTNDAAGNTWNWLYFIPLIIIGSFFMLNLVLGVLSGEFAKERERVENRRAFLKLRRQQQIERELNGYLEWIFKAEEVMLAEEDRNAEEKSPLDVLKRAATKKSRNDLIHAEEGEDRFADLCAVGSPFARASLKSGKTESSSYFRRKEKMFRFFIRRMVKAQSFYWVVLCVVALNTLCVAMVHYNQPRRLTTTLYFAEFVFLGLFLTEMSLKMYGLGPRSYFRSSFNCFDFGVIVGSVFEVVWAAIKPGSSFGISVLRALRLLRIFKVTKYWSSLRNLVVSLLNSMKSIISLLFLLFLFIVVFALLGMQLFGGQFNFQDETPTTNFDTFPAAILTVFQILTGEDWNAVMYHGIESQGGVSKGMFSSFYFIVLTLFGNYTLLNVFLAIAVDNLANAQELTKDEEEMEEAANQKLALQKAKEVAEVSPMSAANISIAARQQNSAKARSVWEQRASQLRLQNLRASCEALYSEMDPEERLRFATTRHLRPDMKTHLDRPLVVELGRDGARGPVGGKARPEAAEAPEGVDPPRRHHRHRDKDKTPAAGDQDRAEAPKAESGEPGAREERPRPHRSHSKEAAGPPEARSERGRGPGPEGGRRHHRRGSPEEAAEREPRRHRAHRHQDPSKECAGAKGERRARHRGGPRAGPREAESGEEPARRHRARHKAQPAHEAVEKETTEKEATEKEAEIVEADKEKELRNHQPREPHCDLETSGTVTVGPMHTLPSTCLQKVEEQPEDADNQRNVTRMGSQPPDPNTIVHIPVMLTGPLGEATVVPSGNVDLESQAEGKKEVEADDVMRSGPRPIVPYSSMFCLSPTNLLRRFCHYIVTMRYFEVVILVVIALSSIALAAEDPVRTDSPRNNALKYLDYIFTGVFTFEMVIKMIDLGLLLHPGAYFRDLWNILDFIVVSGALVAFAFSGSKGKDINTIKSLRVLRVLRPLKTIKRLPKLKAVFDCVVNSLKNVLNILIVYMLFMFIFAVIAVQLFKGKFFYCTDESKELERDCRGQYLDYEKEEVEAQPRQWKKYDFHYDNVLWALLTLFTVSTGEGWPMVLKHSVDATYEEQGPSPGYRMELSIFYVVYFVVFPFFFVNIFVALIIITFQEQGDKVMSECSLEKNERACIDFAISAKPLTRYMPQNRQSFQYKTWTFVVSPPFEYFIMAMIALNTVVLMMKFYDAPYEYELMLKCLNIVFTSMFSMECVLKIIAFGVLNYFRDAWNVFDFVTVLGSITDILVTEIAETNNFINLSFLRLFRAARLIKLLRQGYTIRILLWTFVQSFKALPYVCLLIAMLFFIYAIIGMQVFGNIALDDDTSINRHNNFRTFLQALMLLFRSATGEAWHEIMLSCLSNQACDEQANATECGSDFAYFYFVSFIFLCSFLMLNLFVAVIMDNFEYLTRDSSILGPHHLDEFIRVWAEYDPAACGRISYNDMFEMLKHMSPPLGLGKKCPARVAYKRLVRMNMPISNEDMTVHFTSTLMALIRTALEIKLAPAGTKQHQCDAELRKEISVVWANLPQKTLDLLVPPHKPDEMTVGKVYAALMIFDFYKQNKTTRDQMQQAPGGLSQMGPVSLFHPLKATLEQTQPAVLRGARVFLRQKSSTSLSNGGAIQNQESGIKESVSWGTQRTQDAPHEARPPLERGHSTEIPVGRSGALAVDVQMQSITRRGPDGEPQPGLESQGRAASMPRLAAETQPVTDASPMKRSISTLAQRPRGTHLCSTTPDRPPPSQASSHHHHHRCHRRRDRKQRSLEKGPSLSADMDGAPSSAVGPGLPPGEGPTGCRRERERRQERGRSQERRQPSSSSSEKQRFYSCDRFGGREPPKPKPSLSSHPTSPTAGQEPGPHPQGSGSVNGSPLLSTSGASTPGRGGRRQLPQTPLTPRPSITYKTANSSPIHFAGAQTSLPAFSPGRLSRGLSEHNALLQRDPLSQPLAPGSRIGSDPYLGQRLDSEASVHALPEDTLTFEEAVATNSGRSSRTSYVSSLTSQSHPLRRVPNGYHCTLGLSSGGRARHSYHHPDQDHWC

For `N#Cc1cccc(C(CN2CCOCC2)ON=C2CCN(S(=O)(=O)c3ccc(OC(F)(F)F)cc3)CC2)c1` (centres unmarked) [Example 302, 3-(2-Morpholino-1-(1-(4-(trifluoromethoxy)phenylsulfonyl)piperidin-4-ylideneaminooxy)ethyl)benzonitrile], the concentration for half-maximal inhibition (IC50) (usually the concentration at which inhibition is half-maximal) is ≤ 1000 nM.

As for `N#Cc1cccc(CON=C2CCN(S(=O)(=O)c3ccc(F)c(F)c3)CC2)c1` [Example 210, 3-((1-(3,4-Difluorophenylsulfonyl)piperidin-4-ylideneaminooxy)methyl)benzonitrile], the 50% inhibitory concentration (IC50) was ≤ 1000 nM. As for `N#Cc1cccc(C(CO)ON=C2CCN(S(=O)(=O)c3ccc(OC(F)(F)F)cc3)CC2)c1` (centres unmarked) [Example 191, 3-(2-Hydroxy-1-(1-(4-(trifluoromethoxy)phenylsulfonyl)piperidin-4-ylideneaminooxy)ethyl)benzonitrile], the figure is ≤ 1000 nM; as for `N#Cc1ccc(S(=O)(=O)N2CCC(=NOCc3cccc(C#N)c3)CC2)cc1` [Example 199], ≤ 1000 nM; as for `O=S(=O)(c1ccc(OCC2CC2)cc1)N1CCC(=NOCc2cccc(C(F)(F)F)c2)CC1` [Example 95, 1-(4-Cyclopropylmethoxybenzenesulfonyl)piperidin-4-one O-(3-trifluoromethylbenzyl)oxime], ≤ 1000 nM. As for `O=S(=O)(c1ccc(OC(F)(F)F)cc1)N1CCC(=NOC(c2ccc(F)cc2)c2ccc(F)cc2)CC1` [Example 119, 1-(4-Trifluoromethoxybenzenesulfonyl)piperidin-4-one O-[bis(4-fluorophenyl)methyl]oxime], the figure is ≤ 1000 nM; as for `N#Cc1cc(CON=C2CCN(S(=O)(=O)c3ccc(OC(F)(F)F)cc3)CC2)ccn1` [Example 177, 4-((1-(4-(Trifluoromethoxy)phenylsulfonyl)piperidin-4-ylideneaminooxy)methyl)picolinonitrile], ≤ 1000 nM; as for `N#Cc1cccc(CON=C2CCN(S(=O)(=O)c3cccc(C#N)c3)CC2)c1` [Example 282, 3-(4-(3-Cyanobenzyloxyimino)piperidin-1-ylsulfonyl)benzonitrile], ≤ 1000 nM. Consider `CCCCc1ccc(S(=O)(=O)N2CCC(=NOCc3ccccc3)CC2)cc1` [Example 67, 1-(4-Butylbenzenesulfonyl)piperidin-4-one O-benzyloxime], for which the IC50 is ≤ 1000 nM. On to `N#Cc1ccc(S(=O)(=O)N2CCC(=NOCc3cccc(C(F)(F)F)c3)CC2)cc1` [Example 53, 4-[4-(3-Trifluoromethylbenzyloxyimino)piperidine-1-sulfonyl]benzonitrile], for which the IC50 is ≤ 1000 nM. The result for `N#Cc1cccc(CON=C2CCN(S(=O)(=O)c3ccc(OC(F)F)cc3)CC2)c1` [Example 197, 3-((1-(4-(Difluoromethoxy)phenylsulfonyl)piperidin-4-ylideneaminooxy)methyl)benzonitrile] reads ≤ 1000 nM.

As for `CCCNc1ccc(S(=O)(=O)N2CCC(=NOCc3cccc(C(F)(F)F)c3)CC2)cn1` [Example 99], the concentration for half-maximal inhibition (IC50) is ≤ 1000 nM. With `CCCCc1ccc(S(=O)(=O)N2CCC(=NOCc3cccnc3)CC2)cc1` [Example 70, 1-(4-Butylbenzenesulfonyl)piperidin-4-one O-pyridin-3-ylmethyloxime], the IC50 is ≤ 1000 nM.

For `O=c1ccc(CON=C2CCN(S(=O)(=O)c3ccc(OC(F)(F)F)cc3)CC2)cn1-c1ccc(F)cc1` [Example 314, 1-(4-Fluorophenyl)-5-((1-(4-(trifluoromethoxy)phenylsulfonyl)piperidin-4-ylideneaminooxy)methyl)pyridin-2(1H)-one], the IC50 is ≤ 1000 nM. In the case of `CCCCc1ccc(S(=O)(=O)N2CCC(=NOCc3ccccc3C(F)(F)F)CC2)cc1` [Example 78, 1-(4-Butylbenzenesulfonyl)piperidin-4-one O-(2-trifluoromethylbenzyl)oxime], the IC50 was ≤ 1000 nM.

Turning to `O=S(=O)(c1ccccc1F)N1CCC(=NOCc2cccc(C(F)(F)F)c2)CC1` [Example 63, 1-(2-Fluorobenzenesulfonyl)piperidin-4-one O-(3-trifluoromethylbenzyl)oxime], the IC50 is ≤ 1000 nM. For the compound `CCOc1ccc(S(=O)(=O)N2CCC(=NOCc3cccc(C(F)(F)F)c3)CC2)cc1` [Example 91, 1-(4-Ethoxybenzenesulfonyl)piperidin-4-one O-(3-trifluoromethylbenzyl)oxime], the IC50 is ≤ 1000 nM. The result for `O=S(=O)(c1cccc(C(F)(F)F)c1)N1CCC(=NOC2CCCCC2)CC1` [Example 309, 1-(3-(Trifluoromethyl)phenylsulfonyl)piperidin-4-one O-cyclohexyl oxime] reads ≤ 1000 nM; that for `CCCCc1ccc(S(=O)(=O)N2CCC(=NOCc3cccc(OC(F)(F)F)c3)CC2)cc1` [Example 79, 1-(4-Butylbenzenesulfonyl)piperidin-4-one O-(3-trifluoromethoxybenzyl)oxime], ≤ 1000 nM. The result for `CCCCc1ccc(S(=O)(=O)N2CCC(=NOCc3cc(Cl)ccn3)CC2)cc1` [Example 73, 1-(4-Butylbenzenesulfonyl)piperidin-4-one O-(4-chloropyridin-2-ylmethyl)oxime] reads ≤ 1000 nM; that for `N#Cc1ccnc(CON=C2CCN(S(=O)(=O)c3ccc(OC(F)(F)F)cc3)CC2)c1` [Example 178, 2-((1-(4-(trifluoromethoxy)phenylsulfonyl)piperidin-4-ylideneaminooxy)methyl)isonicotinonitrile], ≤ 1000 nM; that for `CCCCc1ccc(S(=O)(=O)N2CCC(=NOCc3ccccn3)CC2)cc1` [Example 68, 1-(4-Butylbenzenesulfonyl)piperidin-4-one O-pyridin-2-ylmethyloxime], ≤ 1000 nM. Consider `N#Cc1cccc(CON=C2CCN(S(=O)(=O)c3ccc(OCCF)cc3)CC2)c1` [Example 281, 3-((1-(4-(2-Fluoroethoxy)phenylsulfonyl)piperidin-4-ylideneaminooxy)methyl)benzonitrile], for which the IC50 is ≤ 1000 nM. As for `O=S(=O)(c1cccs1)N1CCC(=NOC(c2ccc(F)cc2)c2ccc(F)cc2)CC1` [Example 252, 1-(Thiophen-2-ylsulfonyl)piperidin-4-one O-bis(4-fluorophenyl)methyl oxime], the figure is ≤ 1000 nM. Regarding `N#Cc1cccc(C(ON=C2CCN(S(=O)(=O)c3ccc(NC4CCCC4)nc3)CC2)C2CC2)c1` (centres unmarked) [Example 275, 3-((1-(6-(Cyclopentylamino)pyridin-3-ylsulfonyl)piperidin-4-ylideneaminooxy)(cyclopropyl)methyl)benzonitrile], the IC50 is ≤ 1000 nM.

As for `N#Cc1cccc(CON=C2CCN(S(=O)(=O)c3ccc(OC(F)(F)F)cc3)CC2)n1` [Example 173, 6-((1-(4-(Trifluoromethoxy)phenylsulfonyl)piperidin-4-ylideneaminooxy)methyl)picolinonitrile], the IC50 is ≤ 1000 nM. The result for `N#Cc1ccc(S(=O)(=O)N2CCC(=NOC(c3ccc(F)cc3)c3ccc(F)cc3)CC2)cc1` [Example 256, 4-(4-(Bis(4-fluorophenyl)methoxyimino)piperidin-1-ylsulfonyl)benzonitrile] reads ≤ 1000 nM; that for `CCCCc1ccc(S(=O)(=O)N2CCC(=NOCc3ccc(F)c(C(F)(F)F)c3)CC2)cc1` [Example 81, 1-(4-Butylbenzenesulfonyl)piperidin-4-one O-(4-fluoro-3-trifluoromethylbenzyl)oxime], ≤ 1000 nM.

As for `CCCCc1ccc(S(=O)(=O)N2CCC(=NOCc3ccncc3)CC2)cc1` [Example 71, 1-(4-Butylbenzenesulfonyl)piperidin-4-one O-pyridin-4-ylmethyloxime], the IC50 is ≤ 1000 nM.
